We go through two molecules from patent US9610461B2, “Combination of a MC1R receptor agonist and UVB for the treatment and/or prevention of pigmentation disorders” (GALDERMA RESEARCH & DEVELOPMENT, priority 2012, dated 2017).

Assay [1] deals with mouse SKH2. Nature of the assay: In vivo pro-pigmenting activity by topical route with NB-UVB, clinical score of pigmentation. The following applies: 8% topical on the back of SKH2 mice, 43 days, in combination with NB-UVB irradiation (60 mJ/cm2); versus irradiated group treated with the vehicle. As to the method: (§1) In mice, melanocytes are not present in the epidermis of hair-covered areas but are mainly present in the hair follicles. Pigmentation can be induced by irradiation with UVB in combination with topical or oral agents. The pigmentation changes can be quantified by various means such as clinical score pigmentation and pigmentation measurement by image analysis.
(§2) The evaluation of the MC1R receptor agonists pro-pigmenting activity in combination with NB-UVB irradiation (60 mJ/cm2) is performed by topical application on the back of the mouse SKH2 during 43 days with MC1R agonist compound A at 8% or MC1R agonist compound B at 8% in combination with NB-UVB radiation.
(§3) Practically, the animals were irradiated using the system Biospectra equipped NB-UVB lamps (peak emission maximum at 312 nm) irradiation at 3 times per week at 60 mJ/cm^2 on Monday, Wednesday and Friday. The treatment is carried out 5 days a week and 50 μl of the test product (compounds A or B) is diluted in the vehicle and applied on the back. In the case of associations with radiation, the compounds are administered after irradiation.
(§4) Then, the pigmentation changes is quantified by clinical score pigmentation and pigmentation measurement by image analysis.
The clinical score of animals is performed 1 time per week before irradiation. The pigmentation is evaluated with a score on a scale of 0 to 4. […]

Assay [2] deals with mouse SKH2. Nature of the assay: In vivo pro-pigmenting activity by topical route with NB-UVB, quantification of pigmentation by image analysis at the end of study. As to conditions: 8% topical on the back of SKH2 mice, in combination with NB-UVB irradiation (60 mJ/cm2). As to the method: as §1, §2, §3, §4
At the end of the study, for each animal, two digital photographs of the skin of the back are made with a high quality dermascope and digital camera such as the LiteScope™. […]

Consider `CCOC(=O)C1(C2CCCCC2)CCN(C(=O)[C@@H](Cc2ccc(OC)cc2)NC(=O)NCCc2c[nH]cn2)CC1` [Compound A, 4-Cyclohexyl-1-[(R)-2-{3-[2-(1H-imidazol-4-yl)-ethyl]-ureido}-3-(4-methoxy-phenyl)-propionyl]-piperidine-4-ethyl-carboxylate], for which the “pigmentation of the skin (clinical score of pigmentation, FIGS. 1 and 2)” value with mouse SKH2 [1] is “significantly increases the pigmentation of the skin”. Also, the “pigmentation level at the end of the study by image analysis (FIG. 3)” value in the assay with mouse SKH2 [2] is “synergistic effect is confirmed”.

Regarding `COc1ccc(C[C@@H](NC(=O)CCc2nc[nH]c2C)C(=O)N2CC(OCC3CC3)(c3ccccc3C)C2)cc1` [compound B, N—[(R)-2-(3-Cyclopropylmethoxy-3-o-tolyl-azetidin-1-yl)-1-(4-methoxy-benzyl)-2-oxo-ethyl]-3-(5-methyl-1H-imidazol-4-yl)-propionamide], in the assay on mouse SKH2 [1], the “pigmentation of the skin (clinical score of pigmentation, FIGS. 1 and 2)” value is given as “significantly increases the pigmentation of the skin”.
